According to article PMC9697198, “Carbonic Anhydrase Inhibition Activities of Schiff’s Bases Based on Quinazoline-Linked Benzenesulfonamide” (Molecules, 2022):

Legend:
hCA I = hCA I (Homo sapiens, UniProt P00915); experiment: hCA I inhibition, stopped-flow assay; assay type: biochemical; conditions: stopped-flow technique; mean from three different assays, errors ±5–10%
hCA II = hCA II (Homo sapiens, UniProt P00918); experiment: hCA II inhibition, stopped-flow assay; assay type: biochemical; conditions: stopped-flow technique; mean from three different assays, errors ±5–10%
hCA XII = hCA XII (Homo sapiens, UniProt O43570); experiment: hCA XII inhibition, stopped-flow assay; assay type: biochemical; conditions: for Selectivity Analysis hCA I/XII / Selectivity Analysis hCA II/XII: selectivity index (SI); for Selectivity Analysis hCA I/XII: ratio of Ki hCA I to Ki hCA XII; for Selectivity Analysis hCA II/XII: ratio of Ki hCA II to Ki hCA XII; for Ki: stopped-flow technique, mean from three different assays, errors ±5–10%
Chain of hCA XII (O43570 25-354): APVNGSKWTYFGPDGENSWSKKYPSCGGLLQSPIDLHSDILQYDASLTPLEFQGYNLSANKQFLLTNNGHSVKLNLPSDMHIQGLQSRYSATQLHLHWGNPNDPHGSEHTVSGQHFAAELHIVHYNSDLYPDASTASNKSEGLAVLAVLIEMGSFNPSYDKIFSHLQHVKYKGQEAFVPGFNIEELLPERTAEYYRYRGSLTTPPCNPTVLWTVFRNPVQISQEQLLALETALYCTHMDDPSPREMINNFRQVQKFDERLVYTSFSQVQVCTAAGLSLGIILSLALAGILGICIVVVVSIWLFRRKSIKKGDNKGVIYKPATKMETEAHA

hCA IX = hCA IX (Homo sapiens, UniProt Q16790); experiment: hCA IX inhibition, stopped-flow assay; assay type: biochemical; conditions: for Selectivity Analysis hCA I/IX / Selectivity Analysis hCA II/IX: selectivity index (SI); for Selectivity Analysis hCA I/IX: ratio of Ki hCA I to Ki hCA IX; for Selectivity Analysis hCA II/IX: ratio of Ki hCA II to Ki hCA IX; for Ki: stopped-flow technique, mean from three different assays, errors ±5–10%

Chain of hCA I (P00915 whole entry): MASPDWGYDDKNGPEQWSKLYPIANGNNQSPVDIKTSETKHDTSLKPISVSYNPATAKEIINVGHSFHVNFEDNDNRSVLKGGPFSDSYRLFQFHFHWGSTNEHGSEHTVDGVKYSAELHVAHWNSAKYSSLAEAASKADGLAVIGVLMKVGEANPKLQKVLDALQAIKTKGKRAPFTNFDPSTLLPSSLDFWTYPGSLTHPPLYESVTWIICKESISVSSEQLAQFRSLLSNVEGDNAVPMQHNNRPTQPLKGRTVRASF

| SMILES | Ki (hCA I) | Ki (hCA II) | Selectivity Analysis hCA I/XII (hCA XII) | Selectivity Analysis hCA II/XII (hCA XII) | Ki (hCA XII) | Selectivity Analysis hCA I/IX (hCA IX) | Selectivity Analysis hCA II/IX (hCA IX) | Ki (hCA IX) | melting point |
| --- | --- | --- | --- | --- | --- | --- | --- | --- | --- |
| NS(=O)(=O)c1ccc(CCn2c(SCC(=O)NN=Cc3ccc(Cl)cc3Cl)nc3ccccc3c2=O)cc1 [Compound 7, 4-(2-(2-((2-(2-(2,4-Dichlorobenzylidene)hydrazineyl)-2-oxoethyl)thio)-4-oxoquinazolin-3(4H)-yl)ethyl)benzenesulfonamide] | 2350 nM | 433 nM | 26.33 | 4.84 | 89.4 nM | 107 | 19.67 | 22 nM | 304 to 305 °C |
| CC(=NNC(=O)CSc1nc2ccccc2c(=O)n1CCc1ccc(S(N)(=O)=O)cc1)c1ccc(C)cc1 [Compound 25, 4-(2-(4-Oxo-2-((2-oxo-2-(2-(1-(p-tolyl)ethylidene)hydrazineyl)ethyl)thio)quinazolin-3(4H)-yl)ethyl)benzenesulfonamide] | 627 nM | 126 nM | 10.90 | 2.19 | 57.5 nM | 14.28 | 2.87 | 43.9 nM | 288 to 290 °C |
| CC(=NNC(=O)CSc1nc2ccccc2c(=O)n1CCc1ccc(S(N)(=O)=O)cc1)c1ccccc1 [Compound 17, 4-(2-(4-Oxo-2-((2-oxo-2-(2-(1-phenylethylidene)hydrazineyl)ethyl)thio)quinazolin-3(4H)-yl)ethyl)benzenesulfonamide] | 124 nM | 67.5 nM | 9.78 | 5.31 | 12.7 nM | 2.23 | 1.21 | 55.7 nM | 260 to 261 °C |
| CC(=NNC(=O)CSc1nc2ccccc2c(=O)n1CCc1ccc(S(N)(=O)=O)cc1)c1ccc(Cl)cc1 [Compound 23, 4-(2-(2-((2-(2-(1-(4-Chlorophenyl)ethylidene)hydrazineyl)-2-oxoethyl)thio)-4-oxoquinazolin-3(4H)-yl)ethyl)benzenesulfonamide] | 563 nM | 157 nM |  | 2.56 | 61.2 nM | 8.67 | 2.41 | 65 nM | 278 to 280 °C |
| NS(=O)(=O)c1ccc(CCn2c(SCC(=O)NN=Cc3c(Cl)cccc3Cl)nc3ccccc3c2=O)cc1 [Compound 9, 4-(2-(2-((2-(2-(2,6-Dichlorobenzylidene)hydrazineyl)-2-oxoethyl)thio)-4-oxoquinazolin-3(4H)-yl)ethyl)benzenesulfonamide] | 2260 nM | 165 nM | 40.35 | 2.95 | 55.9 nM | 45.85 | 3.35 | 49.2 nM | 296 to 297 °C |
| CC(=NNC(=O)CSc1nc2ccccc2c(=O)n1CCc1ccc(S(N)(=O)=O)cc1)c1ccc(Br)cc1 [Compound 20, 4-(2-(2-((2-(2-(1-(4-Bromophenyl)ethylidene)hydrazineyl)-2-oxoethyl)thio)-4-oxoquinazolin-3(4H)-yl)ethyl)benzenesulfonamide] | 1360 nM | 698 nM | 15.27 | 7.86 | 88.8 nM | 13.6 | 7.01 | 99.6 nM | 302 to 303 °C |
| CC(=NNC(=O)CSc1nc2ccccc2c(=O)n1CCc1ccc(S(N)(=O)=O)cc1)c1ccccc1Cl [Compound 21, 4-(2-(2-((2-(2-(1-(2-Chlorophenyl)ethylidene)hydrazineyl)-2-oxoethyl)thio)-4-oxoquinazolin-3(4H)-yl)ethyl)benzenesulfonamide] | 1140 nM | 324 nM | 19.74 | 5.59 | 58 nM | 25.27 | 7.15 | 45.3 nM | 273 to 275 °C |
| Cc1ccccc1C=NNC(=O)CSc1nc2ccccc2c(=O)n1CCc1ccc(S(N)(=O)=O)cc1 [Compound 12, 4-(2-(2-((2-(2-(2-Methylbenzylidene)hydrazineyl)-2-oxoethyl)thio)-4-oxoquinazolin-3(4H)-yl)ethyl)benzenesulfonamide] | 338 nM | 69.4 nM | 5.31 | 1.09 | 63.5 nM | 11.41 | 2.34 | 29.6 nM | 239 to 240 °C |
| NS(=O)(=O)c1ccc(CCn2c(SCC(=O)NN=Cc3ccc(Cl)c(Cl)c3)nc3ccccc3c2=O)cc1 [Compound 8, 4-(2-(2-((2-(2-(3,4-Dichlorobenzylidene)hydrazineyl)-2-oxoethyl)thio)-4-oxoquinazolin-3(4H)-yl)ethyl)benzenesulfonamide] | 1830 nM | 325 nM | 28.81 | 5.12 | 63.4 nM | 52.5 | 9.33 | 34.8 nM | 271 to 272 °C |
| NS(=O)(=O)c1ccc(CCn2c(SCC(=O)NN=Cc3ccccc3Cl)nc3ccccc3c2=O)cc1 [Compound 5, 4-(2-(2-((2-(2-(2-Chlorobenzylidene)hydrazineyl)-2-oxoethyl)thio)-4-oxoquinazolin-3(4H)-yl)ethyl)benzenesulfonamide] | 940 nM | 251 nM | 20.39 | 5.45 | 46.1 nM | 35.6 | 9.51 | 26.4 nM | 288 to 290 °C |
| NS(=O)(=O)c1ccc(CCn2c(SCC(=O)NN=Cc3ccccc3[N+](=O)[O-])nc3ccccc3c2=O)cc1 [Compound 13, 4-(2-(2-((2-(2-(2-Nitrobenzylidene)hydrazineyl)-2-oxoethyl)thio)-4-oxoquinazolin-3(4H)-yl)ethyl)benzenesulfonamide] | 992 nM | 569 nM | 46.34 | 26.60 | 21.4 nM | 16.95 | 9.73 | 58.5 nM | 288 to 289 °C |

Stronger by Ki (hCA II), values ahead:

| Ki (hCA I) | Ki (hCA II) | Selectivity Analysis hCA I/XII (hCA XII) | Selectivity Analysis hCA II/XII (hCA XII) | Ki (hCA XII) | Selectivity Analysis hCA I/IX (hCA IX) | Selectivity Analysis hCA II/IX (hCA IX) | Ki (hCA IX) | melting point | SMILES |
| --- | --- | --- | --- | --- | --- | --- | --- | --- | --- |
| 31.5 nM | 0.62 nM |  |  |  |  |  |  |  | NS(=O)(=O)c1ccc(CCn2c(S)nc3ccccc3c2=O)cc1 [Compound 1, 4-(2-(2-mercapto-4-oxoquinazolin-3(4H)-yl)ethyl)benzenesulfonamide] |
| 238 nM | 10.8 nM | 6.87 | 0.31 | 34.7 nM | 7.07 | 0.32 | 33.7 nM |  | CC(=NNC(=O)CSc1nc2ccccc2c(=O)n1CCc1ccc(S(N)(=O)=O)cc1)c1cccnc1 [Compound 27, 4-(2-(4-Oxo-2-((2-oxo-2-(2-(1-(pyridin-3-yl)ethylidene)hydrazineyl)ethyl)thio)quinazolin-3(4H)-yl)ethyl)benzenesulfonamide] |
| 87.6 nM | 16.9 nM | 16.22 | 3.12 | 5.4 nM | 1.68 | 0.32 | 52.1 nM | 253 to 254 °C | NNC(=O)CSc1nc2ccccc2c(=O)n1CCc1ccc(S(N)(=O)=O)cc1 [Compound 3, 4-(2-(2-((2-Hydrazineyl-2-oxoethyl)thio)-4-oxoquinazolin-3(4H)-yl)ethyl)benzenesulfonamide] |
| 824 nM | 35.2 nM | 45.04 | 1.92 | 18.3 nM | 22.46 | 0.96 | 36.7 nM | 264 to 265 °C | CC(=NNC(=O)CSc1nc2ccccc2c(=O)n1CCc1ccc(S(N)(=O)=O)cc1)c1ccccc1N [Compound 18, 4-(2-(2-((2-(2-(1-(2-Aminophenyl)ethylidene)hydrazineyl)-2-oxoethyl)thio)-4-oxoquinazolin-3(4H)-yl)ethyl)benzenesulfonamide] |
| 274 nM | 35.8 nM | 11.96 | 1.56 | 22.9 nM | 13.91 | 1.81 | 19.7 nM | 276 to 277 °C | NS(=O)(=O)c1ccc(CCn2c(SCC(=O)NN=Cc3ccccc3F)nc3ccccc3c2=O)cc1 [Compound 10, 4-(2-(2-((2-(2-(2-Fluorobenzylidene)hydrazineyl)-2-oxoethyl)thio)-4-oxoquinazolin-3(4H)-yl)ethyl)benzenesulfonamide] |
|  | 16.9 to 21.3 nM |  | 0.61 |  |  |  |  | 210 to 211 °C | CCOC(=O)CSc1nc2ccccc2c(=O)n1CCc1ccc(S(N)(=O)=O)cc1 [Compound 2, Ethyl 2-((4-oxo-3-(4-sulfamoylphenethyl)-3,4-dihydroquinazolin-2-yl)thio)acetate] |
